According to ChEMBL document CHEMBL6153031, “Impact of the hydrophilic-lipophilic balance of free-base and Zn(II) tricationic pyridiniumporphyrins and irradiation wavelength in PDT against the melanoma cell lines” (Eur J Med Chem, 2025):
pIC50: −log10 of the molar value.

Experiments:
[1] = Phototoxicity against human MeWo cells assessed as reduction in cell viability incubated for 6 hrs followed by irradiation for 30 mins with light at wavelength of 643 nm and measured after 36 to 48 hrs by MTT assay; assay type: functional, cell-based; conditions: light or radiation study
[2] = Phototoxicity against human A-375 cells assessed as reduction in cell viability incubated for 6 hrs followed by irradiation for 30 mins with light at wavelength of 606 nm and measured after 36 to 48 hrs by MTT assay; assay type: functional, cell-based; conditions: A-375, light or radiation study
[3] = Drug uptake in human MeWo cells at 1 uM measured at 37 degC after 6 hrs by fluorescence based analysis; assay type: ADME, cell-based
[4] = Cytotoxicity against human HDF cells assessed as reduction in cell viability measured after 36 to 48 hrs by MTT assay; assay type: toxicity, cell-based
[5] = Cytotoxicity against human MeWo cells assessed as reduction in cell viability measured after 36 to 48 hrs by MTT assay; assay type: toxicity, cell-based
[6] = Phototoxicity against human A-375 cells assessed as reduction in cell viability incubated for 6 hrs followed by irradiation for 30 mins with light at wavelength of 643 nm and measured after 36 to 48 hrs by MTT assay; assay type: functional, cell-based; conditions: A-375, light or radiation study
[7] = Cytotoxicity against human A-375 cells assessed as reduction in cell viability measured after 36 to 48 hrs by MTT assay; assay type: toxicity, cell-based
[8] = Cytotoxicity against human HDF cells assessed as reduction in cell viability incubated for 6 hrs followed by irradiation for 30 mins with light at wavelength of 643 nm and measured after 36 to 48 hrs by MTT assay; assay type: toxicity, cell-based
[9] = Phototoxicity against human MeWo cells assessed as reduction in cell viability incubated for 6 hrs followed by irradiation for 30 mins with light at wavelength of 606 nm and measured after 36 to 48 hrs by MTT assay; assay type: functional, cell-based; conditions: light or radiation study
[10] = Drug uptake in human HDF cells at 1 uM measured at 37 degC after 6 hrs by fluorescence based analysis; assay type: ADME, cell-based
[11] = Drug uptake in human HDF cells at 1 uM measured per 10^3 cells after 24 hrs by fluorescence based analysis; assay type: ADME, cell-based
[12] = Cytotoxicity against human HDF cells assessed as reduction in cell viability incubated for 6 hrs followed by irradiation for 30 mins with light at wavelength of 606 nm and measured after 36 to 48 hrs by MTT assay; assay type: toxicity, cell-based
[13] = Drug uptake in cytoplasmic organelles in human MeWo cells at 5 uM incubated for 6 hrs by DIOC6(3) dye based fluorescence microscopy; assay type: ADME, cell-based
[14] = Drug uptake in nucleus in human HDF cells at 5 uM incubated for 6 hrs by DIOC6(3) dye based fluorescence microscopy; assay type: ADME, cell-based
[15] = Drug uptake in human HDF cells at 1 uM measured after 6 hrs by fluorescence based analysis; assay type: ADME, cell-based
[16] = Drug uptake in human MeWo cells at 1 uM measured after 6 hrs by fluorescence based analysis; assay type: ADME, cell-based
[17] = Drug uptake in human A-375 cells at 1 uM measured after 6 hrs by fluorescence based analysis; assay type: ADME, cell-based; conditions: a-375, 6 h
[18] = Drug uptake in cytoplasmic organelles in human HDF cells at 5 uM incubated for 6 hrs by DIOC6(3) dye based fluorescence microscopy; assay type: ADME, cell-based
[19] = Drug uptake in nucleus in human MeWo cells at 5 uM incubated for 6 hrs by DIOC6(3) dye based fluorescence microscopy; assay type: ADME, cell-based
[20] = (§1) Selectivity index, ratio of IC50 for cytotoxicity against human HDF cells incubated for 6 hrs followed by irradiation for 30 mins with light at wavelength of 606 nm and measured after 36 to 48 hrs to IC50 for phototoxicity against human MeWo cells incubated for 6 hrs followed by irradiation for 30 mins with light at wavelength of 606 nm and measured after 36 to 48 hrs; assay type: toxicity, cell-based; conditions: HDF cells versus MeWo cells, read-out: Ratio IC50
[21] = Cytotoxicity against human HDF cells assessed as cell proliferation rate at 1 uM incubated for 6 hrs followed by irradiation for 30 mins with light at wavelength of 606 nm and measured after 36 to 48 hrs by MTT assay; assay type: toxicity, cell-based; conditions: time 2550-3270 min, read-out: Activity
[22] = Phototoxicity against human MeWo cells assessed as cell proliferation rate at 1 uM incubated for 6 hrs followed by irradiation for 30 mins with light at wavelength of 606 nm and measured after 36 to 48 hrs by MTT assay; assay type: functional; conditions: light or radiation study, time 2550-3270 min, read-out: Activity
[23] = Cytotoxicity against human HDF cells assessed as reduction in cell proliferation at 1 uM incubated for 6 hrs followed by irradiation for 30 mins with light at wavelength of 606 nm and measured after 36 to 48 hrs by MTT assay; assay type: toxicity, cell-based; conditions: time 2550-3270 min
[24] = Phototoxicity against human MeWo cells assessed as reduction in cell proliferation at 1 uM incubated for 6 hrs followed by irradiation for 30 mins with light at wavelength of 606 nm and measured after 36 to 48 hrs by MTT assay; assay type: functional; conditions: light or radiation study, time 2550-3270 min
[25] = as §1, with “A-375” for “MeWo”; assay type: toxicity, cell-based; conditions: HDF cells versus A-375 cells, read-out: Ratio IC50
[26] = Cytotoxicity against human HDF cells assessed as cell proliferation rate at 1 uM incubated for 6 hrs followed by irradiation for 30 mins with light at wavelength of 643 nm and measured after 36 to 48 hrs by MTT assay; assay type: toxicity, cell-based; conditions: time 2550-3270 min, read-out: Activity
[27] = Phototoxicity against human MeWo cells assessed as cell proliferation rate at 1 uM incubated for 6 hrs followed by irradiation for 30 mins with light at wavelength of 643 nm and measured after 36 to 48 hrs by MTT assay; assay type: functional; conditions: light or radiation study, time 2550-3270 min, read-out: Activity
[28] = Phototoxicity against human A-375 cells assessed as reduction in cell proliferation at 1 uM incubated for 6 hrs followed by irradiation for 30 mins with light at wavelength of 606 nm and measured after 36 to 48 hrs by MTT assay; assay type: functional; conditions: A-375, light or radiation study, time 2550-3270 min
[29] = Drug uptake in human MeWo cells at 1 uM measured at 4 degC after 6 hrs by fluorescence based analysis; assay type: ADME, cell-based
[30] = Drug uptake in human HDF cells at 1 uM measured at 4 degC after 6 hrs by fluorescence based analysis; assay type: ADME, cell-based
[31] = Phototoxicity against human A-375 cells assessed as reduction in cell proliferation at 1 uM incubated for 6 hrs followed by irradiation for 30 mins with light at wavelength of 643 nm and measured after 36 to 48 hrs by MTT assay; assay type: functional; conditions: A-375, light or radiation study, time 2550-3270 min
[32] = Cytotoxicity against human HDF cells assessed as reduction in cell proliferation at 1 uM incubated for 6 hrs followed by irradiation for 30 mins with light at wavelength of 643 nm and measured after 36 to 48 hrs by MTT assay; assay type: toxicity, cell-based; conditions: time 2550-3270 min
[33] = Phototoxicity against human MeWo cells assessed as reduction in cell proliferation at 1 uM incubated for 6 hrs followed by irradiation for 30 mins with light at wavelength of 643 nm and measured after 36 to 48 hrs by MTT assay; assay type: functional; conditions: light or radiation study, time 2550-3270 min
[34] = Phototoxicity against human A-375 cells assessed as cell proliferation rate at 1 uM incubated for 6 hrs followed by irradiation for 30 mins with light at wavelength of 643 nm and measured after 36 to 48 hrs by MTT assay; assay type: functional; conditions: A-375, light or radiation study, time 2550-3270 min, read-out: Activity
[35] = Phototoxicity against human A-375 cells assessed as cell proliferation rate at 1 uM incubated for 6 hrs followed by irradiation for 30 mins with light at wavelength of 606 nm and measured after 36 to 48 hrs by MTT assay; assay type: functional; conditions: A-375, light or radiation study, time 2550-3270 min, read-out: Activity

Row | SMILES | pIC50 [1] | pIC50 [2] | Drug uptake [3] | pIC50 [4] | pIC50 [5] | pIC50 [6] | pIC50 [7] | pIC50 [8] | pIC50 [9] | Drug uptake [10] | pIC50 [12] | Drug uptake [13] | Drug uptake [14] | Drug uptake [18] | Drug uptake [19] | Drug uptake [29] | Drug uptake [30] | also measured
1 | CCCCCCCCCCCCCCCC(=O)Nc1ccc(-c2c3nc(c(-c4ccc[n+](C)c4)c4ccc([nH]4)c(-c4ccc[n+](C)c4)c4nc(c(-c5ccc[n+](C)c5)c5ccc2[nH]5)C=C4)C=C3)cc1.[Cl-].[Cl-].[Cl-] | 6.25 | 6.42 | Active | < 4.00 | < 4.00 | 7.00 | < 4.00 | 6.38 | 6.10 | Active | 5.83 |  |  |  |  |  |  | Drug uptake [11]: ~ 26 nM
2 | CCCCCCCCCCCCCCCCCC(=O)Nc1ccc(-c2c3nc(c(-c4ccc[n+](C)c4)c4ccc([nH]4)c(-c4ccc[n+](C)c4)c4nc(c(-c5ccc[n+](C)c5)c5ccc2[nH]5)C=C4)C=C3)cc1.[Cl-].[Cl-].[Cl-] | 6.46 | 6.43 | Active | < 4.00 | < 4.00 | 7.05 | < 4.00 | 6.49 | 6.32 | Active | 6.17 | Active | Not_active | Active | Not_active |  |  | Drug uptake [15]: Active; Drug uptake [16]: Active; Drug uptake [17]: Active; Drug uptake [11]: ~ 95 nM
3 | CCCCCCCCCCCCCC(=O)Nc1ccc(-c2c3nc(c(-c4ccc[n+](C)c4)c4ccc([nH]4)c(-c4ccc[n+](C)c4)c4nc(c(-c5ccc[n+](C)c5)c5ccc2[nH]5)C=C4)C=C3)cc1.[Cl-].[Cl-].[Cl-] | 6.18 | 6.51 | Active | < 4.00 | < 4.00 | 7.05 | < 4.00 | 6.11 | 5.84 | Active | 5.34 | Active | Not_active | Active | Not_active |  |  | selectivity ratio [20]: 3.2; viability at 1 µM [21]: > 80%; growth at 1 µM [22]: 60%; inhibition at 1 µM [23]: 10%; inhibition at 1 µM [24]: 50%; selectivity ratio [25]: 14.8; viability at 1 µM [26]: ~30%; growth at 1 µM [27]: 40%; inhibition at 1 µM [28]: 90%
4 | CC(=O)Nc1ccc(-c2c3nc(c(-c4ccc[n+](C)c4)c4ccc([nH]4)c(-c4ccc[n+](C)c4)c4nc(c(-c5ccc[n+](C)c5)c5ccc2[nH]5)C=C4)C=C3)cc1.[Cl-].[Cl-].[Cl-] | < 4.00 | < 4.00 | Active | < 4.00 | < 4.00 | < 4.00 | < 4.00 | < 4.00 | < 4.00 | Active | < 4.00 |  |  |  |  | Active | Active | 
5 | CCCCCCCC(=O)Nc1ccc(-c2c3nc(c(-c4ccc[n+](C)c4)c4ccc([nH]4)c(-c4ccc[n+](C)c4)c4nc(c(-c5ccc[n+](C)c5)c5ccc2[nH]5)C=C4)C=C3)cc1.[Cl-].[Cl-].[Cl-] | 5.08 | 5.49 | Active | < 4.00 | < 4.00 | 5.60 | < 4.00 | 4.59 | 4.72 | Active | 4.49 |  |  |  |  | Active | Active | 
6 | CCCCCCCCCCCC(=O)Nc1ccc(-c2c3nc(c(-c4ccc[n+](C)c4)c4ccc([nH]4)c(-c4ccc[n+](C)c4)c4nc(c(-c5ccc[n+](C)c5)c5ccc2[nH]5)C=C4)C=C3)cc1 | 5.63 | 6.48 |  | < 4.00 | < 4.00 | 6.54 | < 4.00 | 5.33 | 5.37 |  | 5.20 |  |  |  |  |  |  | inhibition at 1 µM [31]: > 90%; inhibition at 1 µM [32]: < 20%; inhibition at 1 µM [33]: 40%
7 | CCCCCCCCCC(=O)Nc1ccc(-c2c3nc(c(-c4ccc[n+](C)c4)c4ccc([nH]4)c(-c4ccc[n+](C)c4)c4nc(c(-c5ccc[n+](C)c5)c5ccc2[nH]5)C=C4)C=C3)cc1.[Cl-].[Cl-].[Cl-] | 5.11 | 5.40 | Active | < 4.00 | < 4.00 | 6.04 | < 4.00 | 5.15 | 5.01 | Active | 4.49 | Active | Not_active | Active | Not_active | Active | Active | growth at 1 µM [34]: ~30%; growth at 1 µM [35]: > 80%
